Assay results from US20060276446A1, “Tricyclic 6-alkylidene-penems as class-D beta-lactamases inhibitors” (priority 2005, published 2006).

System: not given
Assay: not given
Details: not given

For O=C([O-])C1=CS[C@@H]2/C(=C\c3nc4ncc5c(n4n3)CCC3(C5)OCCO3)C(=O)N12.[Na+] [Example 24, (5R,6Z)-6-(8′,9′-dihydro-6′H-spiro[1,3-dioxolane-2,7′-[1,2,4]triazolo[1,5-a]quinazolin]-2′-ylmethylene)-7-oxo-4-thia-1-azabicyclo[3.2.0]hept-2-ene-2-carboxylic acid, sodium salt], the melting point was > 250 °C (dec.).
For Cc1nc2nc(/C=C3/C(=O)N4C(C(=O)[O-])=CS[C@H]34)nn2c2c1CCCC2.[Na+] [Example 25, (5R,6Z)-6-[(5-methyl-6,7,8,9-tetrahydro[1,2,4]triazolo[1,5-a]quinazolin-2-yl)methylene]-7-oxo-4-thia-1-azabicyclo[3.2.0]hept-2-ene-2-carboxylic acid, sodium salt], the melting point was 250 °C (dec.).
Work on O=C([O-])C1=CS[C@@H]2/C(=C\c3cn4c5c(c(OCCOCc6ccccc6)nc4n3)CCC5)C(=O)N12.[Na+] [Example 27, (5R,6Z)-6-({5-[2-(benzyloxy)ethoxy]-7,8-dihydro-6H-cyclopenta[e]imidazo[1,2-a]pyrimidin-2-yl}methylene)-7-oxo-4-thia-1-azabicyclo[3.2.0]hept-2-ene-2-carboxylic acid, sodium salt] yielded a melting point greater than 250 °C.
O=C([O-])C1=CS[C@@H]2/C(=C\c3ccc4nc5n(c4c3)CCCS5)C(=O)N12.[Na+] [Example 29, (5R,6Z)-6-(3,4-dihydro-2H-[1,3]thiazino[3,2-a]benzimidazol-7-ylmethylene)-7-oxo-4-thia-1-azabicyclo[3.2.0]hept-2-ene-2-carboxylic acid, sodium salt] showed a melting point greater than 250 °C.
O=C([O-])C1=CS[C@@H]2/C(=C\c3ccc4nc5sccn5c4c3)C(=O)N12.[Na+] [Example 30, (5R,6Z)-7-oxo-6-([1,3]thiazolo[3,2-a]benzimidazol-6-ylmethylene)-4-thia-1-azabicyclo[3.2.0]hept-2-ene-2-carboxylic acid, sodium salt] gave a melting point greater than 250 °C.

System: class-D producing organism E. coli GC 2883 (OXA-10 + PSE-2)
Assay: Antimicrobial susceptibility testing, microbroth dilution (NCCLS): piperacillin combined with β-lactamase inhibitor
Format: cell-based
Details: MIC of piperacillin combined with constant 4 μg/mL of the β-lactamase inhibitor (example compound), 35° C. for 18 hours
Procedure: Antimicrobial susceptibility testing. The in vitro activities of the antibiotic, piperacillin in this case, against resistant pathogens expressing class-D enzymes were determined by the microbroth dilution method as recommended by the National Committee for Clinical Laboratory Standards (NCCLS). (NCCLS. 2000. Methods for Dilution Antimicrobial Susceptibility Tests for Bacteria That Grow Aerobically; Approved Standards: M7-A5, vol. 19. National Committe for Clinical Laboratory Standards, Villanova, Pa.). Mueller-Hinton II broth (MHBII)(BBL Cockeysville, Md.), was used for the testing procedure. Microtiter plates containing 50 μl per well of two-fold serial dilutions of piperacillin combined with a constant amount (4 μg/mL) of β-lactamase inhibitor (final concentration) were inoculated with 50 μl of inoculum to yield the appropriate density (10^5 CFU/mL) in 100 μL. The plates were incubated for 18-22 hours at 35° C. in ambient air. […] Both OXA-10 and PSE-2 are class D β-lactamases. (Bush, K., Jacoby, G. A., Medeiros, A. A. Antimicrob. Agents Chemother., 1995, 39, 1211).

First: COc1ccc2c(c1)sc1nc(/C=C3/C(=O)N4C(C(=O)O)=CS[C@H]34)cn12 [Example 2]
Second: O=C(O)C1=CS[C@@H]2/C(=C\c3cn4c(n3)sc3cc(Cl)ccc34)C(=O)N12 [Example 3]
The “Minimal Inhibitory Concentration (MIC50)” value of the first is 2-fold higher: 4 µg/mL for the first, 2 µg/mL for the second.

Compared with O=C(O)C1=CS[C@@H]2/C(=C\c3cn4c(ccc5ccccc54)n3)C(=O)N12 [Example 4, (5R),(6Z)-6-Imidazo[1,2-a]quinolin-2-ylmethylene-7-oxo-4-thia-1-azabicyclo[3.2.0]hept-2-ene-2-carboxylic acid], O=C(O)C1=CS[C@@H]2/C(=C\c3cn4c5c(sc4n3)CCC5)C(=O)N12 [Example 5, (5R),(6Z)-6-(6,7-dihydro-5H-cyclopenta[d]imidazo[2,1-b][1,3]thiazol-2-ylmethylene)-7-oxo-4-thia-1-azabicyclo[3.2.0]hept-2-ene-2-carboxylic acid] is 2-fold lower in “Minimal Inhibitory Concentration (MIC50)” value: 4 µg/mL for the first, 2 µg/mL for the second.

Going from O=C([O-])C1=CS[C@@H]2/C(=C\c3cn4c(cnc5ccccc54)n3)C(=O)N12.[Na+] [Example 6, (5R),(6Z)-6-(Imidazo[1,2-a]quinoxaline-2-ylmethylene)-7-oxo-4-thia-1-azabicyclo[3.2.0]hepto-2-ene-2-carboxylic acid, sodium salt] to Cc1ccc2c(c1)sc1nc(/C=C3/C(=O)N4C(C(=O)O)=CS[C@H]34)cn12 [Example 7], the “Minimal Inhibitory Concentration (MIC50)” value rises from 0.06 µg/mL to 2 µg/mL (33-fold).

First: O=C([O-])C1=CS[C@@H]2/C(=C\c3cn4c(n3)nc3n4CCCC3)C(=O)N12.[Na+] [Example 8, (5R),(6Z)-6-(4,5,6,7-tetrahydro-1,3a,3b,8-tetraaza-cyclopenta[a]indene-2-ylmethylene)-7-oxo-4-thia-1-aza-bicyclo[3.2.0]hept-2-ene-2-carboxylic acid sodium salt]
Second: O=C([O-])C1=CS[C@@H]2C(=Cc3cc4n(n3)Cc3ccccc3OC4)C(=O)N12.[Na+] [Example 11, (5R,6E&Z)-7-oxo-6-(4H,10H-pyrazolo[5,1-c][1,4]benzoxazepin-2-ylmethylene)-4-thia-1-azabicyclo[3.2.0]hept-2-ene-2-carboxylic acid, sodium salt]
The “Minimal Inhibitory Concentration (MIC50)” value of the first is 2-fold lower: 2 µg/mL for the first, 4 µg/mL for the second.

Compared with O=C([O-])C1=CS[C@@H]2/C(=C\c3cn4c(n3)-c3ccccc3C4)C(=O)N12.[Na+] [Example 12, (5R),(6Z)-6-(5H-Imidazo[2,1-a]isoindol-2-ylmethylene)-7-oxo-4-thia-1-aza-bicyclo[3.2.0]hept-2-ene-2-carboxylic acid sodium salt], Cc1cccc2sc3nc(/C=C4/C(=O)N5C(C(=O)O)=CS[C@H]45)cn3c12 [Example 13] is 4-fold lower in “Minimal Inhibitory Concentration (MIC50)” value: 16 µg/mL for the first, 4 µg/mL for the second.

O=C(O)C1=CS[C@@H]2/C(=C\c3cn4c(n3)sc3cc(F)ccc34)C(=O)N12 [Example 14] and O=C(O)C1=CS[C@@H]2/C(=C\c3cn4c5c(sc4n3)COCC5)C(=O)N12 [Example 15, (5R),(6Z)-6-(5,8-dihydro-6H-imidazo[2,1-b]pyrano[4,3-d][1,3]thiazol-2-ylmethylene)-7-oxo-4-thia-1-azabicyclo[3.2.0]hept-2-ene-2-carboxylic acid] are the same in “Minimal Inhibitory Concentration (MIC50)” value: 4 µg/mL for the first, 4 µg/mL for the second.

O=C(O)C1=CS[C@@H]2/C(=C\c3ccc4c(c3)sc3nccn34)C(=O)N12 [Example 16, (5R),(6Z)-6-(imidazo[2,1-b]bebzothiazol-7-ylmethylene)-7-oxo-4-thia-1-azabicyclo[3.2.0]hept-2-ene-2-carboxylic acid] and O=C(O)C1=CS[C@@H]2/C(=C\c3cn4c(nc5ccccc54)s3)C(=O)N12 [Example 17, (5R),(6Z)-7-oxo-6-([1,3]thiazolo[3,2-a]benzimidazol-2-ylmethylene)-4-thia-1-azabicyclo[3.2.0]hept-2-ene-2-carboxylic acid] are the same in “Minimal Inhibitory Concentration (MIC50)” value: 32 µg/mL for the first, 32 µg/mL for the second.

Compared with O=C(O)C1=CS[C@@H]2/C(=C\c3cn4nc5c(c4s3)CCC5)C(=O)N12 [Example 18, (5R),(6Z)-6-(7,8-dihydro-6H-cyclopenta[3.4]pyrazolo[5,1-b][1,3]thiazol-2-ylmethylene)-7-oxo-6-4-thia-1-azabicyclo[3.2.0]hept-2-ene-2-carboxylic acid], O=C(O)C1=CS[C@@H]2/C(=C\c3cn4c5c(sc4n3)CCCC5)C(=O)N12 [Example 19, (5R),(6Z)-7-oxo-6-(5,6,7,8-tetrahydroimidazo[2,1-b][1,3]benzothiazol-2-ylmethylene)-4-thia-1-azabicyclo[3.2.0]hept-2-ene-2-carboxylic acid] is 8-fold lower in “Minimal Inhibitory Concentration (MIC50)” value: 16 µg/mL for the first, 2 µg/mL for the second.

First: Cn1c2ccccc2n2cc(/C=C3/C(=O)N4C(C(=O)O)=CS[C@H]34)nc12 [Example 20, (5R),(6Z)-8-[(9-methyl-9H-imidazo[1,2-a]benzimidazol-2-yl)methylene]-7-oxo-4-thia-1-azabicyclo[3.2.0]hept-2-ene-2-carboxylic acid]
Second: O=C([O-])C1=CS[C@@H]2/C(=C\c3cccc4nc5n(c34)CCS5)C(=O)N12.[Na+] [Example 28, (5R,6Z)-6-(2,3-dihydro[1,3]thiazolo[3,2-a]benzimidazol-4-ylmethylene)-7-oxo-4-thia-1-azabicyclo[3.2.0]hept-2-ene-2-carboxylic acid, sodium salt]
The “Minimal Inhibitory Concentration (MIC50)” value of the first is 4-fold higher: 64 µg/mL for the first, 16 µg/mL for the second.

Going from CCOC(=O)N1CCc2c(oc3cc(/C=C4/C(=O)N5C(C(=O)[O-])=CS[C@H]45)nn23)C1.[Na+] [Example 33] to “(5R,6Z)-7-oxo-6-(4H-thieno[2′,3′:4,5]thiopyrano[2,3-b]pyridin-2-ylmethylene)-4-thia-1-azabicyclo[3.2.0]hept-2-ene-2-carboxylic acid (Sodium salt) [Example 21]”, the “Minimal Inhibitory Concentration (MIC50)” value rises from 8 µg/mL to 64 µg/mL (8-fold).
